The test system of this assay is hepatocellular carcinoma cell line Hep3B. Put plainly: Growth inhibition of Hep3B cells, 48 hr treatment, Hoechst 33342 nucleus count (GE InCell 2200). The class given is cell-based. To be noted: Homo sapiens, Table 6, ratio of number of tumor cells treated with 10 μM compound to non-treated cells. In outline: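 Compound exposure lasted 48 hr at 37° C, 5% CO2. Surviving nuclei were counted after Hoechst 33342 staining, and survival was expressed as the treated/non-treated cell number ratio, including the ratio at 10 μM compound.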
A word on the viability: it is a read-out of living cells in per cent, often relative to untreated cells. In the case of `O=C(Nc1nc(-c2ccc(Br)cc2)c(Br)s1)c1ccc([N+](=O)[O-])s1` [Compound 6-10, N-(5-bromo-4-(4-bromophenyl)thiazol-2-yl)-5-nitrothiophene-2-carboxamide], the viability at 10 µM is 50%.

Take `O=C(Nc1nc(-c2ccccc2[N+](=O)[O-])cs1)c1ccc([N+](=O)[O-])s1` [Compound 6-11, 5-nitro-N-(4-(2-nitrophenyl)thiazol-2-yl)thiophene-2-carboxamide]: the viability at 10 µM was found to be 62%.

On to `O=C(Nc1nc(-c2ccccc2[N+](=O)[O-])c(Br)s1)c1ccc([N+](=O)[O-])s1` [Compound 6-12, N-(5-bromo-4-(2-nitrophenyl)thiazol-2-yl)-5-nitrothiophene-2-carboxamide], for which the viability at 10 µM is 67%. To `O=C(Nc1nc(-c2cccc([N+](=O)[O-])c2)c(Br)s1)c1ccc([N+](=O)[O-])s1` [Compound 6-13, N-(5-bromo-4-(3-nitrophenyl)thiazol-2-yl)-5-nitrothiophene-2-carboxamide] belongs 81%; to `COc1cccc(-c2nc(NC(=O)c3ccc([N+](=O)[O-])s3)sc2Br)c1` [Compound 6-14, N-(5-bromo-4-(3-methoxyphenyl)thiazol-2-yl)-5-nitrothiophene-2-carboxamide], 83%. Then `CCOc1ccc(-c2nc(NC(=O)c3ccc([N+](=O)[O-])s3)sc2-c2ccc(F)cc2)cc1` [Compound 6-15, N-(4-(4-ethoxyphenyl)-5-(4-fluorophenyl)thiazol-2-yl)-5-nitrothiophene-2-carboxamide], with 64%; and `CCOc1ccc(-c2nc(NC(=O)c3ccc([N+](=O)[O-])s3)sc2Br)cc1` [Compound 6-17, N-(5-bromo-4-(4-ethoxyphenyl)thiazol-2-yl)-5-nitrothiophene-2-carboxamide], with 53%. Then `CCOc1ccc(-c2nc(NC(=O)c3ccc([N+](=O)[O-])s3)sc2-c2ccc(C(F)(F)F)cc2)cc1` [Compound 6-19, N-(4-(4-ethoxyphenyl)-5-(4-(trifluoromethyl)phenyl)thiazol-2-yl)-5-nitrothiophene-2-carboxamide], with 26%. For `CCOc1cc(-c2sc(NC(=O)c3ccc([N+](=O)[O-])s3)nc2-c2ccc(C)cc2)ccc1Br` [Compound 6-20, N-(5-(4-bromo-3-ethoxyphenyl)-4-(p-tolyl)thiazol-2-yl)-5-nitrothiophene-2-carboxamide], the viability at 10 µM was 45%. To `CCCOc1ccc(-c2nc(NC(=O)c3ccc([N+](=O)[O-])s3)sc2N2CCN(C)CC2)cc1` [Compound 6-22, N-(5-(4-methylpiperazin-1-yl)-4-(4-propoxyphenyl)thiazol-2-yl)-5-nitrothiophene-2-carboxamide] belongs 29%; to `CCCOc1ccc(-c2nc(NC(=O)c3ccc([N+](=O)[O-])s3)sc2C(=O)OCC)cc1` [Compound 6-23, ethyl 2-(5-nitrothiophene-2-carboxamido)-4-(4-propoxyphenyl)thiazole-5-carboxylate], 33%; to `CCOc1ccc(-c2nc(NC(=O)c3ccc([N+](=O)[O-])s3)sc2C(=O)Nc2cc(F)cc(F)c2)cc1` [Compound 6-27, N-(3,5-difluorophenyl)-4-(4-ethoxyphenyl)-2-(5-nitrothiophene-2-carboxamido)thiazole-5-carboxamide], 36%. To `CCOc1ccc(-c2nc(NC(=O)c3ccc([N+](=O)[O-])s3)sc2N(C)c2ccccc2)cc1` [Compound 6-28, N-(4-(4-ethoxyphenyl)-5-(methyl (phenyl)amino)thiazol-2-yl)-5-nitrothiophene-2-carboxamide] belongs 31%; to `CCCOc1ccc(-c2nc(NC(=O)c3ccc([N+](=O)[O-])s3)sc2C(=O)N2CCOCC2)cc1` [Compound 6-29, N-(5-(morpholine-4-carbonyl)-4-(4-propoxyphenyl)thiazol-2-yl)-5-nitrothiophene-2-carboxamide], 58%; to `CCCOc1ccc(-c2nc(NC(=O)c3ccc([N+](=O)[O-])s3)sc2C(=O)N2CCN(C)CC2)cc1` [Compound 6-30, N-(5-(4-methylpiperazine-1-carbonyl)-4-(4-propoxyphenyl)thiazol-2-yl)-5-nitrothiophene-2-carboxamide], 58%. To `CCCOc1ccc(-c2nc(NC(=O)c3ccc([N+](=O)[O-])s3)sc2C(=O)Nc2ccc(F)cc2F)cc1` [Compound 6-31, N-(2,4-difluorophenyl)-2-(5-nitrothiophene-2-carboxamido)-4-(4-propoxyphenyl)thiazole-5-carboxamide] belongs 61%. In the case of `Cc1ccc(-c2nc(NC(=O)c3ccc([N+](=O)[O-])o3)sc2-c2ccc(Br)cc2)cc1` [Compound 6-32, N-(5-(4-bromophenyl)-4-(p-tolyl)thiazol-2-yl)-5-nitrofuran-2-carboxamide], the viability at 10 µM is 27%. As for `CCOc1ccc(-c2nc(NC(=O)c3ccc([N+](=O)[O-])o3)sc2Cc2ccccc2)cc1` [Compound 6-33, N-(5-benzyl-4-(4-ethoxyphenyl)thiazol-2-yl)-5-nitrofuran-2-carboxamide], the viability at 10 µM amounted to 27%. To `CCOc1ccc(-c2nc(NC(=O)c3ccc([N+](=O)[O-])s3)sc2Cc2ccc(F)cc2)cc1` [Compound 6-35, N-(4-(4-ethoxyphenyl)-5-(4-fluorobenzyl)thiazol-2-yl)-5-nitrothiophene-2-carboxamide] belongs 47%. To `CCOc1ccc(-c2nc(NC(=O)c3ccc([N+](=O)[O-])s3)sc2Cc2cccc(F)c2)cc1` [Compound 6-36, N-(4-(4-ethoxyphenyl)-5-(3-fluorobenzyl)thiazol-2-yl)-5-nitrothiophene-2-carboxamide] belongs 41%; to `CC(C)(C)c1ccc(-c2nc(NC(=O)c3ccc([N+](=O)[O-])s3)sc2Cc2ccc(F)cc2)cc1` [Compound 6-37, N-(4-(4-(tert-butyl)phenyl)-5-(4-fluorobenzyl)thiazol-2-yl)-5-nitrothiophene-2-carboxamide], 39%. Then `CC(C)(C)c1ccc(-c2nc(NC(=O)c3ccc([N+](=O)[O-])s3)sc2-c2ccc(F)cc2F)cc1` [Compound 6-39, N-(4-(4-(tert-butyl)phenyl)-5-(2,4-difluorophenyl)thiazol-2-yl)-5-nitrothiophene-2-carboxamide], with 31%. For `CC(C)(C)c1ccc(-c2nc(NC(=O)c3ccc([N+](=O)[O-])s3)sc2-c2cccc(F)c2)cc1` [Compound 6-41, N-(4-(4-(tert-butyl)phenyl)-5-(3-fluorophenyl)thiazol-2-yl)-5-nitrothiophene-2-carboxamide], the viability at 10 µM was 36%. To `CCOC(=O)c1sc(NC(=O)c2ccc([N+](=O)[O-])s2)nc1-c1ccc(C(C)(C)C)cc1` [Compound 6-42, ethyl 4-(4-(tert-butyl)phenyl)-2-(5-nitrothiophene-2-carboxamido)thiazole-5-carboxylate] belongs 49%; to `CN1CCN(C(=O)c2sc(NC(=O)c3ccc([N+](=O)[O-])s3)nc2-c2ccc(C(C)(C)C)cc2)CC1` [Compound 6-43, N-(4-(4-(tert-butyl)phenyl)-5-(4-methylpiperazine-1-carbonyl)thiazol-2-yl)-5-nitrothiophene-2-carboxamide], 38%; to `CC(C)(C)c1ccc(-c2nc(NC(=O)c3ccc([N+](=O)[O-])s3)sc2C(=O)NC2CC2)cc1` [Compound 6-44, 4-(4-(tert-butyl)phenyl)-N-cyclopropyl-2-(5-nitrothiophene-2-carboxamido)thiazole-5-carboxamide], 81%.

Consider `CC(C)(C)c1ccc(-c2nc(NC(=O)c3ccc([N+](=O)[O-])s3)sc2-c2ccccc2F)cc1` [Compound 6-48, N-(4-(4-(tert-butyl)phenyl)-5-(2-fluorophenyl)thiazol-2-yl)-5-nitrothiophene-2-carboxamide], for which the viability at 10 µM was 45%. To `CC(C)(C)c1ccc(-c2nc(NC(=O)c3ccc([N+](=O)[O-])s3)sc2C(=O)N2CCOCC2)cc1` [Compound 6-49, N-(4-(4-(tert-butyl)phenyl)-5-(morpholine-4-carbonyl)thiazol-2-yl)-5-nitrothiophene-2-carboxamide] belongs 57%; to `CC(C)(C)c1ccc(-c2nc(NC(=O)c3ccc([N+](=O)[O-])s3)sc2C#N)cc1` [Compound 6-50, N-(4-(4-(tert-butyl)phenyl)-5-cyanothiazol-2-yl)-5-nitrothiophene-2-carboxamide], 53%.

`CC(C)(C)c1ccc(-c2nc(NC(=O)c3ccc([N+](=O)[O-])s3)sc2-c2cc(F)c(F)c(F)c2)cc1` [Compound 6-51, N-(4-(4-(tert-butyl)phenyl)-5-(3,4,5-trifluorophenyl)thiazol-2-yl)-5-nitrothiophene-2-carboxamide]: the viability at 10 µM turned out to be 50%. To `CC(C)(C)c1ccc(-c2nc(NC(=O)c3ccc([N+](=O)[O-])s3)sc2-c2c(F)cc(F)cc2F)cc1` [Compound 6-52, N-(4-(4-(tert-butyl)phenyl)-5-(2,4,6-trifluorophenyl)thiazol-2-yl)-5-nitrothiophene-2-carboxamide] belongs 37%.

As to `CC(C)(C)c1ccc(-c2nc(NC(=O)c3ccc([N+](=O)[O-])s3)sc2-c2ccccc2Cl)cc1` [Compound 6-55, N-(4-(4-(tert-butyl)phenyl)-5-(2-chlorophenyl)thiazol-2-yl)-5-nitrothiophene-2-carboxamide], the viability at 10 µM is 30%.

For `CC(C)(C)c1ccc(-c2nc(NC(=O)c3ccc([N+](=O)[O-])s3)sc2-c2cccc(Cl)c2)cc1` [Compound 6-56, N-(4-(4-(tert-butyl)phenyl)-5-(3-chlorophenyl)thiazol-2-yl)-5-nitrothiophene-2-carboxamide], the viability at 10 µM was determined as 28%.

Regarding `CC(C)(C)c1ccc(-c2nc(NC(=O)c3ccc([N+](=O)[O-])s3)sc2-c2ccccc2Br)cc1` [Compound 6-57, N-(5-(2-bromophenyl)-4-(4-(tert-butyl)phenyl)thiazol-2-yl)-5-nitrothiophene-2-carboxamide], the viability at 10 µM worked out at 29%.

Values taken from patent US11174253B2, “Compound and pharmaceutical composition containing the same” (ALPHALA CO., LTD., priority 2017, dated 2021).
